Reference: patent US20100292231A1, “Indazole Compounds for Treating Inflammatory Disorders, Demyelinating Disorders and Cancers” (priority 2007, published 2010)
Where two headings read alike, the source gives them in different places.

What was measured:
FLT3 D835Y = molecular target: T1, FLT3 D835Y (Homo sapiens, UniProt P36888, D835Y); assay: Kinase EC50 (10 pt curve or estimate, ATP Kmapp); type: biochemical; conditions: from 10 pt curve or estimate based on 1 μm inhibition assay at ATP Kmapp
T1 construct: purchased Invitrogen (SelectScreen platform)
T1 sequence (P36888 27-993 D835Y): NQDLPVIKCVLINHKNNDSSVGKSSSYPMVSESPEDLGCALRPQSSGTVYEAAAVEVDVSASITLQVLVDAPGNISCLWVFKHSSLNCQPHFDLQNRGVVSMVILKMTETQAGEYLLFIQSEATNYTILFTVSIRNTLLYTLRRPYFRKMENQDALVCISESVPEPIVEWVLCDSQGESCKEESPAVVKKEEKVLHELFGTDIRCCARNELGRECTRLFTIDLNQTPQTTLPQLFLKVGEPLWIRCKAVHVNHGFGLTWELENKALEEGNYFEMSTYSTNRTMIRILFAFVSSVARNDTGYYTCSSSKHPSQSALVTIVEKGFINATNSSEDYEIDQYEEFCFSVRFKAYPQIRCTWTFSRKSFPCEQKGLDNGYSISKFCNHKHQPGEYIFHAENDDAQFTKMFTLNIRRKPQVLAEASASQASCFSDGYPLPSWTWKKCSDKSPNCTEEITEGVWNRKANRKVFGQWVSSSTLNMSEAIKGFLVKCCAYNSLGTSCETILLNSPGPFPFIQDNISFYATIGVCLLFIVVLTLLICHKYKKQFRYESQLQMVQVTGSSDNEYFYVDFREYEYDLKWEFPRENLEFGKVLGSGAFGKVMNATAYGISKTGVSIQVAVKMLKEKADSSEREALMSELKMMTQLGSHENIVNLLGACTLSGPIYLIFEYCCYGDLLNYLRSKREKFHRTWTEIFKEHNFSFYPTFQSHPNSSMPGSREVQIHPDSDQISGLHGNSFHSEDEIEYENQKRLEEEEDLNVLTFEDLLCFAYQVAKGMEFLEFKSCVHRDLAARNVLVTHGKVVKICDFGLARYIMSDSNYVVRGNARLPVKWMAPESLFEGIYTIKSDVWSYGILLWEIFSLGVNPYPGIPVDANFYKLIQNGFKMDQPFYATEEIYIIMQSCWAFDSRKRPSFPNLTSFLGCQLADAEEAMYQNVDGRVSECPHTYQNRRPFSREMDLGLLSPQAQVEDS

[1] = system: Raw264.7 (murine macrophage-like cells); assay: sulforhodamine B (SRB) cytotoxicity assay; type: cell-based; conditions: Mus musculus, Table 5 summary, read-out: IC50 SRB assay Raw 264.7
Experimental: (§1) The cytotoxic activity of compounds listed in Table 5 was determined with a sulforhodamine B (SRB) assay on panel of cell lines, including MdaMb231 (breast cancer), MV4-11 (leukemia), PC-3 (prostate cancer), U266B1 (multiple myeloma), C7 macrophages, and Raw264.7 (murine macrophage-like cells).
(§2) Cells growing in relevant media were seeded in a 96 well plate and left to adhere overnight. Cells were plated at appropriate cell densities: • MV4-11: 20.000 cells/well • Mda-Mb231: 6000 cells/well • C7: 10.000 cells/well • Raw264.7: 2000 cells/well • PC-3: 6000 cells/well • U266B1: 40.000 cells/well.
(§3) Cells were incubated before the compounds were added the next day to a top concentration of 100 μM and serially diluted 1 in 5 across the plate. After a 3 day incubation period (6 days for C7 and Raw264.7) cells were fixed with trichloroacetic acid (TCA) to end concentration of 10% for adherent cells and 16% end concentration for suspension cells for 1 hr at 4° C. before washing. Cells were stained with 0.4% sulforhodamine-B dye (SRB) in 1% acetic acid for 30 minutes and washed in 1% acetic acid. To solubilize the dye 100 μl 10 mM Tris, pH 10.5 was added and the absorbance was read at 564 nm. IC50 values were generated using the SoftMAX Pro™ software. The data is presented below in Tables 6 through 11.

[2] = system: MV4-11 (leukemia) cell line; assay: sulforhodamine B (SRB) cytotoxicity assay; type: cell-based; conditions: Homo sapiens
Experimental: as §1, §2
as §3, with “After” for “Cells were incubated before the compounds were added the next day to a top concentration of 100 μM and serially diluted 1 in 5 across the plate. After”

[3] = system: MdaMb231 (breast cancer) cell line; assay: sulforhodamine B (SRB) cytotoxicity assay; type: cell-based; conditions: Homo sapiens
Experimental: as §1, §2, §3

[4] = MV4-11, 72 h, 100 μM highest concentration, diluted 1:5, 3 day incubation, read-out: IC50 Measured Against MV4-11 Cell Line
[5] = MV4-11, Table 5 summary, read-out: IC50 SRB assay MV4-11
[6] = MDA-MB-231, 72 h, 100 μM highest concentration, diluted 1:5 (two series), 3 day incubation, read-out: IC50 Measured Against MdaMb231 Cell Line
[7] = MDA-MB-231, Table 5 summary, read-out: IC50 SRB assay Mda MB-231
[8] = MV4-11, 72 h, 50 μM highest concentration, diluted 1:4, 3 day incubation, read-out: IC50 Measured Against MV4-11 Cell Line

SMILES	EC50 (FLT3 D835Y) [nM]	IC50 [1] [nM]	IC50 [2, 4] [nM]	IC50 [2, 5] [nM]	IC50 [3, 6] [nM]	IC50 [3, 7] [nM]	IC50 [2, 8] [nM]
O=c1c2c(NCCCN3CCOCC3)ccc3ncn(c4ccc5[nH]ncc5c14)c32 [(X)]	11	2.7	2	2			
CC(CCN1CCOCC1)Nc1ccc2ncn3c4ccc5[nH]ncc5c4c(=O)c1c23 (stereo not drawn) [(XVI)]	8	25.7	121	121	5100	5100	
CN1CCN(CCCNc2ccc3ncn4c5ccc6[nH]ncc6c5c(=O)c2c34)CC1 [(XVII)]	5	2.6		82	45300	45300	82
CCN(CC)CCCNc1ccc2ncn3c4ccc5[nH]ncc5c4c(=O)c1c23 [Compound (XV)]	4	< 0.1		< 1	4000	4000	< 1
CCN(CC)CCNc1ccc2ncn3c4ccc(O)cc4c(=O)c1c23 [Symadex, 5-(2-(diethylamino)ethylamino)-8-hydroxy-6H-imidazo[4,5,1-de]acridin-6-one, reference compound]	24		12	12		6800	28

Second part, led by results:

EC50 (FLT3 D835Y) [nM]	SMILES	IC50 [1] [nM]	IC50 [2, 4] [nM]	IC50 [2, 5] [nM]	IC50 [3, 6] [nM]	IC50 [3, 7] [nM]	IC50 [2, 8] [nM]
3	CN(C)CCNc1ccc2ncn3c4ccc5[nH]ncc5c4c(=O)c1c23 [(XII)]	< 0.1	< 1	< 1	7400	7400	
12	CN(C)CCCNc1ccc2ncn3c4ccc5[nH]ncc5c4c(=O)c1c23 [Compound (IV)]	< 0.1	< 1	< 1	5400	5400	
